In one data set the test system is EBV (Akata/Akata). Nature of the data set: EBV assay: viral DNA quantification in induced Akata cells. Type of data set: cell-based, Epstein-Barr virus. Conditions: for activity against EBV: cell-based assay, highest concentration tested in primary assays 50 μM. How it is done: Akata cells were obtained from Louisiana State University, Baton Rouge, LA. The HCMV strain AD169 was obtained from the American Type Culture Collection (ATCC, Manassas, VA). Akata cells latently infected with EBV were obtained from Louisiana State University, Baton Rouge, LA.
(§1) Each experiment that evaluates the antiviral activity of compounds includes both positive and negative control compounds to ensure the performance of each assay. Concurrent assessment of cytotoxicity was also performed for each study in the same cell line and with the same compound exposure.
Assays for EBV were performed by reported methods.^37 Akata cells were induced to undergo a lytic infection with 50 μg/ml of a goat anti-human IgG antibody. Experimental compounds were diluted within plates. The cells were added and incubated for 72 h. Similar plates were initiated without virus induction/addition and used for measuring cytotoxicity by the addition of CTG. For all assays, the replication of the virus was assessed by the quantification of viral DNA. For EBV, primers 5′-[…]-3′ and 5′-CAG TTC CTC GCCTTAGGTTG-3 amplified a fragment corresponding to coordinates 96802-97234 in EBV genome (AJ507799). Compound concentrations sufficient to reduce genome copy number by 50% were calculated from experimental data as well as compound cytotoxicity.

In another data set the test system is primary human MDM. Nature of the data set: Toxicity to MDM: LDH assay and light microscopy. Type of data set: cell-based. As to the method: Light microscopy was used to image MDMs on day 7 of infection. […] Colorimetric LDH assays were also performed on culture supernatants from these same cells on day 4 of infection to assess cell death.
At the end of each experiment, cells were imaged by light microscopy. After aspirating off media, cells were washed with PBS, and lysates were harvested in extraction buffer containing 0.1% Formic acid, 50% ACN, 40% MeOH, 10% H2O.
Drug toxicity was analyzed using an LDH assay kit according to manufacturer's instructions (Abcam #ab65393, Toronto, Canada). Briefly, supernatants from duplicate plates per treatment condition were added to a 96-well plate. Each supernatant was run in triplicate. Provided assay buffer was added to culture supernatants after mixing with a substrate solution that turns orange upon lactate exposure. After incubation for 30-45 min, colorimetric signal was quantified an OD of 450 nm. LDH was a positive control as well as cells lysed with 10% lysis buffer in media representing the “high control” to which % cytotoxicity was measured. The reference sample was either control uninfected cells treated with DMSO or negative control HIV-infected cells treated with DMSO. Culture media alone was used as a technical negative control. This background signal that was subtracted from all test wells.

Another data set deals with HIVADA. Nature of the data set: HIV p24 alphaLISA in infected monocyte derived macrophages. Type of data set: cell-based, Human Immunodeficiency Virus. How it is done: Primary human MDMs were cultured from peripheral blood mononuclear cells and pre-treated for 24 h with ddhC (100 μM), compound 8 (100 μM), compound 21 (100 μM), emtricitabine control (15 μM, 10 μM, 1 μM, 0.1 μM), or the drug vehicle, DMSO. MDM were then infected with HIVADA in the presence of these compounds and treated daily (with compound), while culture supernatants were collected to quantify levels of HIV p24, a viral capsid protein, on days 2-7 of infection.
Leukopaks from healthy donors were obtained from the New York Blood Center and processed by Ficoll gradient centrifugation to isolate peripheral blood mononuclear cells (PBMC). These PBMC were cultured adherently into monocyte derived macrophages (MDM), according to published protocols, on 60 mm dishes for 6 days with 10-20 ng/ml macrophage colony stimulating factor (M-CSF). MDM were pre-treated with ddhC, compound 8, compound 21, emtricitabine (Cat. No .: 10071), or DMSO vehicle at indicated concentrations for 24 hours (NIH AIDS Reagent Program, Bethesda, MD). Cells were left uninfected or infected for 24 h in the presence of one of the compounds listed above with 20 ng/mL HIVADA, a macrophage-tropic HIV strain originally derived from a person with HIV (NIH). Media was changed daily with the mentioned compounds added each time, and supernatants were collected on days 2, 3, 4, 5, 6, and 7 of infection. Each treatment condition was analyzed in duplicate plates per experiment.
Supernatant samples were analyzed for the viral capsid protein, HIV p24, by a sensitive p24 alphaLISA according to the manufacturer's protocol (Perkin-Elmer, Waltham, MA). Treatment conditions were analyzed in duplicate plates, and each supernatant was analyzed in duplicate on a 96-well alphaLISA plate. These were then fit to a sigmoid standard curve to extrapolate HIV p24 levels in pg/mL within the assay limits of detection.
For orientation: In Alpha technology, singlet oxygen from a donor bead excites a nearby acceptor bead.

Data set [1] in a line: Cytotoxicity in Akata cells (CTG), concurrent with EBV assay. Type of data set: cell-based. Conditions: human, Table 1. How it is done: as §1
Assays for EBV were performed by reported methods.^37 Akata cells were induced to undergo a lytic infection with 50 μg/ml of a goat anti-human IgG antibody. Experimental compounds were diluted within plates. The cells were added and incubated for 72 h. Similar plates were initiated without virus induction/addition and used for measuring cytotoxicity by the addition of CTG. For all assays, the replication of the virus was assessed by the quantification of viral DNA. […] Compound concentrations sufficient to reduce genome copy number by 50% were calculated from experimental data as well as compound cytotoxicity.

The subject of a further data set is HHV-6B (Z29; MOLT-3). Nature of the data set: HHV-6B antiviral assay (Z29; MOLT-3). Type of data set: cell-based, human betaherpesvirus 6B.
[2] abbreviates: human gammaherpesvirus 4, Akata, EBV Akata/Akata, assay order Secondary, read-out: Result for compound (EC50/UM).
The mark [3] stands for this setting: human gammaherpesvirus 4, Akata, read-out: Result for compound (EC50/UM), EBV Akata/Akata, assay order Primary.
Setting [4] is: human gammaherpesvirus 4, Akata, Akata/Akata, Table 1, read-out: EBV EC50.
The mark [5] stands for this setting: human gammaherpesvirus 4, Akata, read-out: EC50 against EBV.
Setting [6] is: human gammaherpesvirus 4, Akata, read-out: Result for compound (EC50/UM), EBV Akata/Akata, assay order Secondary.

SMILES strings stand for the structures. Entries after “also recorded” stand apart in the source; their conditions may differ. Read-outs that look alike come from different tables or passages of the source.

By CC50 is commonly meant the concentration that lowers cell viability or growth by half. Low values mean greater toxicity to the cells, high ones lower toxicity to the cells.

For the molecule `CC(C)(C)C(=O)OCC1=C[C@@H](O)[C@H](n2ccc(N)nc2=O)O1` [drawing 69], the EC50 in the data set on EBV (Akata/Akata) (setting [2]) stood at 15.9 µM. As to `Nc1ccn([C@H]2CC=C(CO)O2)c(=O)n1` [Compound A-30, 3′,4′-Didehydro-2′,3′-dideoxycytidine], the “activity against EBV” value in the data set on EBV (Akata/Akata) is reported as “activity comparable to their 2′-hydroxylated analogues”.

Take `Nc1ccn([C@H]2CC=C(CO)O2)c(=O)n1` [drawing 72, 3′,4′-Didehydro-2′,3′-dideoxycytidine]: the EC50 in the data set on EBV (Akata/Akata) (setting [3]) amounted to 29.6 µM. Still for that read-out and setting: under `CC(C)C(=O)OCC1=CC[C@H](n2ccc(N)nc2=O)O1` [drawing 73, 3′,4′-Didehydro-2′,3′-dideoxy-5′-O-isobutyroylcytidine] stands 6.31 µM. On to `CC(C)C(=O)OCC1=C[C@@H](O)[C@H](n2ccc(N)nc2=O)O1` [drawing 64, 3′-Deoxy-3′,4′-didehydro-5′-O-isobutyroyl-cytidine], for which, in the data set with EBV (Akata/Akata) (setting [2]), the EC50 was 16.1 µM. As for `CC(=O)OCC1=C[C@@H](O)[C@H](n2ccc(N)nc2=O)O1` [drawing 67], the EC50 in the data set with EBV (Akata/Akata) (setting [3]) was determined as 8.96 µM. `CC(C)OC(=O)[C@H](C)N[P@](=O)(OCC1=C[C@@H](O)[C@H](n2ccc(N)nc2=O)O1)Oc1ccccc1` [Compound 21, 3′-Deoxy-3′,4′-didehydrocytidine-5′-O-[phenyl(isopropoxy-L-alaninyl) ]-Sp-phosphoramidate]: in the data set with EBV (Akata/Akata), the “activity against EBV” value is “more weakly inhibiting”. Moreover, the figures for the EC50 with EBV (Akata/Akata) (setting [4]), in the data set on EBV (Akata/Akata) (setting [3]) and in the data set on EBV (Akata/Akata) (setting [5]) were 23.7 µM, 23.8 µM and 7.6 to 38.7 µM, respectively. In the data set with primary human MDM (100 μM, day 4 of infection), the “LDH activity in HIV-infected MDMs relative to DMSO controls” value is “nearly identical”. In the data set with primary human MDM (100 uM, visual inspection by light microscopy and colorimetric LDH assays), the “toxicity to MDMs” value is “non-toxic”. Besides, the “levels of HIV p24 viral capsid protein” value in the data set with HIVADA (100 μM, infected MDM, days 2-7, compared with DMSO control) is “significantly reduce; also recorded: significantly decreased”. For the same molecule, in the data set with HIVADA (low doses: compound 8 compound 21 (0.1-1 μM) as printed), the “impact on HIV replication relative to the DMSO control” value is reported as “minimal impact”. The CC50 at 72 h in data set [1] was > 50 µM.

As to `CC(C)(C)C(=O)OCOP(=O)(OCOC(=O)C(C)(C)C)OCC1=C[C@@H](O)[C@H](n2ccc(N)nc2=O)O1` [drawing 76], in the data set with EBV (Akata/Akata) (setting [3]), the EC50 is > 50 µM. Consider `CCCCCC(=O)OCC1=C[C@@H](O)[C@H](n2ccc(N)nc2=O)O1` [Compound 27], for which, in the data set on EBV (Akata/Akata), the “activity against EBV” value was “inactive”. On the same count and under the same terms, the value for `CC(C)(C)C(=O)OCC1=C[C@@H](O)[C@H](n2ccc(N)nc2=O)O1` [Compound 25] was “comparably active”. As to `Nc1ccn(C[C@@H](CO)OCP(=O)(O)O)c(=O)n1` [Cidofovir, cidofovir, reference compound], the EC50 in the data set on EBV (Akata/Akata) (EBV Akata/Akata, control run alongside, Primary, read-out: CDV control result (EC50/UM)) is 2.58 µM; in the data set on EBV (Akata/Akata) (EBV Akata/Akata, control run alongside, Secondary, read-out: CDV control result (EC50/UM)), 1.93 µM; in the data set with EBV (Akata/Akata) (setting [4]), 8.25 µM; in the data set on EBV (Akata/Akata) (setting [5]), 8.25 µM; in the data set on EBV (Akata/Akata) (read-out: CDV control result (EC50/UM), EBV Akata/Akata, control run alongside, Secondary), 5.95 µM; in the data set with HHV-6B (Z29; MOLT-3) (cidofovir (CDV) control, MOLT-3, HHV-6B, control run alongside, Primary, read-out: CDV control result (EC50/UM)), 3.42 µM. Further, the EC50 in the data set with HHV-6B (Z29; MOLT-3) (cidofovir (CDV) control, MOLT-3, HHV-6B, control run alongside, Secondary, read-out: CDV control result (EC50/UM)) came to 4.26 µM. Further, in data set [1] (Akata cells (without virus induction)), the CC50 at 72 h is > 100 µM. On to `CC(=O)OCC1=C[C@@H](O)[C@H](n2ccc(N)nc2=O)O1` [drawing 68], for which the EC50 in the data set with EBV (Akata/Akata) (setting [6]) was 7.96 µM.

With `CC(C)C(=O)OCC1=CC[C@H](n2ccc(N)nc2=O)O1` [Compound 39, 3′,4′-Didehydro-2′,3′-dideoxy-5′-O-isobutyroylcytidine], in the data set on EBV (Akata/Akata), the “activity against EBV” value was “activity comparable to their 2′-hydroxylated analogues”. Also, the “activity against HHV-6B” value with HHV-6B (Z29; MOLT-3) was “active”. Further, the EC50 in the data set with HHV-6B (Z29; MOLT-3) (Human betaherpesvirus 6B, MOLT-3, HHV-6B Z29, MOLT-3, Primary, read-out: Result for compound (EC50/UM)) was 5.54 µM; in the data set with HHV-6B (Z29; MOLT-3) (Human betaherpesvirus 6B, MOLT-3, HHV-6B Z29, MOLT-3, Secondary, read-out: Result for compound (EC50/UM)) it was 16.7 µM. Consider `CC(C)(C)C(=O)SCCOP(=O)(OCCSC(=O)C(C)(C)C)OCC1=C[C@@H](O)[C@H](n2ccc(NO)nc2=O)O1`, for which the EC50 with EBV (Akata/Akata) (setting [6]) is 16.6 µM. Regarding `CCC(CC)COC(=O)[C@H](C)N[P@](=O)(OCC1=C[C@@H](O)[C@H](n2ccc(N)nc2=O)O1)Oc1ccccc1` [drawing 77], the EC50 in the data set with EBV (Akata/Akata) (setting [3]) was > 50 µM. Turning to `CC(C)[C@H](N)C(=O)OCC1=C[C@@H](O)[C@H](n2ccc(N)nc2=O)O1` [drawing 70], the EC50 in the data set with EBV (Akata/Akata) (setting [2]) is 18.5 µM. As for `CCC(CC)COC(=O)[C@H](C)N[P@](=O)(OCC1=C[C@@H](O)[C@H](n2ccc(N)nc2=O)O1)Oc1ccccc1` [Compound 32, 3′,4′-Didehydro-3′-deoxycytidine-5′-0-{phenyl [2-(ethyl)but-1-yloxy-L-alaninyl] }-Sp-phosphoramidate], the “activity against EBV” value in the data set on EBV (Akata/Akata) is “not active”.

Turning to `CC(C)(C)C(=O)OCOP(=O)(OCOC(=O)C(C)(C)C)OCC1=C[C@@H](O)[C@H](n2ccc(N)nc2=O)O1` [Compound 35, 3′,4′-Didehydro-3′-deoxycytidine-5′-bis(pivaloyloxymethyl)phosphate], the “activity against EBV” value with EBV (Akata/Akata) was “inactive”.

`CCCCCC(=O)OCC1=C[C@@H](O)[C@H](n2ccc(N)nc2=O)O1` [drawing 75]: the EC50 in the data set on EBV (Akata/Akata) (setting [3]) is > 50 µM. Turning to `CC(C)[C@H](N)C(=O)OCC1=C[C@@H](O)[C@H](n2ccc(N)nc2=O)O1` [Compound 30, 3′,4′-Didehydro-3′-deoxy-5′-O-L-valinoylcytidine], in the data set on EBV (Akata/Akata), the “activity against EBV” value is given as “comparably active”. Regarding `CC(C)C(=O)OCC1=CC[C@H](n2ccc(N)nc2=O)O1` [drawing 74, 3′,4′-Didehydro-2′,3′-dideoxy-5′-O-isobutyroylcytidine], the EC50 with EBV (Akata/Akata) (setting [2]) was found to be 7.09 µM.

These data come from patent US20240287123A1 (Victoria Link Limited, priority 2021, published 2024).
